pIC50: −log10 of the molar value. Blank lines part the entries; values can stand above or below the compound they belong to. Activity calls are given as the source filed them. The rule behind the calls is not given here.
Experiments:
A549 [1] = assay: Antiproliferative activity against human A549 cells incubated for 48 hrs by MTT assay; type: functional, cell-based; settings: A549, 48 h
HEK293 [2] = assay: Cytotoxicity against HEK293 cells incubated for 48 hrs by MTT assay; type: toxicity, cell-based; settings: human, hek293, 48 h
[3] = target: Vascular endothelial growth factor receptor 2 (Homo sapiens) (UniProt P35968); assay: Induction of VEGFR2 degradation in human U87 cells at 2 uM incubated for 48 hrs in presence of (2S,4R)-1-((S)-2-(5-azidopentanamido)-3,3-dimethylbutanoyl)-4-hydroxy-N-(4-(4-methylthiazol-5-yl)benzyl)pyrrolidine-2-carboxamide by Western blot analysis; type: cell-based
[4] = target: Serine/threonine-protein kinase B-raf (Homo sapiens) (UniProt P15056); assay: Induction of BRAF degradation in human U87 cells upto 10 uM incubated for 48 hrs by Western blot analysis; type: cell-based
[5] = target: Vascular endothelial growth factor receptor 2 (Homo sapiens) (UniProt P35968); assay: Induction of VEGFR2 degradation in human U87 cells upto 10 uM incubated for 48 hrs by Western blot analysis; type: cell-based
HEK293 [6] = assay: Cytotoxicity against HEK293 cells at high concentration incubated for 48 hrs in presence of 4-azido-N-(2-(2,6-dioxopiperidin-3-yl)-1,3-dioxoisoindolin-4-yl)butanamide by MTT assay; type: toxicity, cell-based; settings: human, hek293, 48 h
U-87 MG [7] = assay: (§1) Induction of apoptosis in human U87 cells assessed as late apoptotic cells at 5 uM incubated for 48 hrs in presence of (2S,4R)-1-((S)-2-(5-azidopentanamido)-3,3-dimethylbutanoyl)-4-hydroxy-N-(4-(4-methylthiazol-5-yl)benzyl)pyrrolidine-2-carboxamide by Annexin V-FLTC/PI staining based flow cytometry (reference value: 3.71 %); type: functional, U-87MG ATCC
U-87 MG [8] = assay: as §1, with “as early” for “as late”, “at 1” for “at 5”, “value: 8.95” for “value: 3.71”; type: functional, U-87MG ATCC
U-87 MG [9] = assay: as §1, with “at 20” for “at 5”; type: functional, U-87MG ATCC
U-87 MG [10] = assay: as §1, with “early” for “late”, “8.95” for “3.71”; type: functional, U-87MG ATCC
U-87 MG [11] = assay: Antiproliferative activity against human U87 cells incubated for 48 hrs by MTT assay; type: functional, cell-based, U-87MG ATCC
U-87 MG [12] = assay: as §1, with “as viable” for “as late apoptotic”, “at 0.1” for “at 5”, “value: 86.74” for “value: 3.71”; type: functional, U-87MG ATCC; settings: read-out: Activity
U-87 MG [13] = assay: as §1, with “as necrotic” for “as late apoptotic”, “at 10” for “at 5”, “value: 0.60” for “value: 3.71”; type: functional, U-87MG ATCC
U-87 MG [14] = assay: as §1, with “as viable” for “as late apoptotic”, “at 1” for “at 5”, “value: 86.74” for “value: 3.71”; type: functional, U-87MG ATCC; settings: read-out: Activity
[15] = target: Platelet-derived growth factor receptor beta (Homo sapiens) (UniProt P09619); assay: Induction of PDGFR-beta degradation in human U87 cells at 10 uM incubated for 48 hrs in presence of 4-azido-N-(2-(2,6-dioxopiperidin-3-yl)-1,3-dioxoisoindolin-4-yl)butanamide by Western blot analysis; type: cell-based
A549 [16] = assay: Antiproliferative activity against human A549 cells incubated for 48 hrs in presence of (2S,4R)-1-((S)-2-(5-azidopentanamido)-3,3-dimethylbutanoyl)-4-hydroxy-N-(4-(4-methylthiazol-5-yl)benzyl)pyrrolidine-2-carboxamide by MTT assay; type: functional, cell-based; settings: A549, 48 h
U-87 MG [17] = assay: as §1, with “as viable” for “as late apoptotic”, “at 20” for “at 5”, “value: 86.74” for “value: 3.71”; type: functional, U-87MG ATCC; settings: read-out: Activity
[18] = Stability of compound in H2O by HPLC analysis; type: physicochemical
U-87 MG [19] = assay: Induction of apoptosis in human U87 cells assessed as necrotic cells at 5 uM incubated for 48 hrs in presence of 4-(4-(3-(4-chloro-3-(trifluoromethyl)phenyl)ureido)phenoxy)-N-(prop-2-yn-1-yl)picolinamide by Annexin V-FLTC/PI staining based flow cytometry (reference value: 0.60 %); type: functional, U-87MG ATCC
U-87 MG [20] = assay: Induction of apoptosis in human U87 cells assessed as necrotic cells at 20 uM incubated for 48 hrs in presence of 4-(4-(3-(4-chloro-3-(trifluoromethyl)phenyl)ureido)phenoxy)-N-(prop-2-yn-1-yl)picolinamide by Annexin V-FLTC/PI staining based flow cytometry (reference value: 0.60 %); type: functional, U-87MG ATCC
A549 [21] = assay: Antiproliferative activity against human A549 cells incubated for 48 hrs in presence of 4-(4-(3-(4-chloro-3-(trifluoromethyl)phenyl)ureido)phenoxy)-N-(prop-2-yn-1-yl)picolinamide by MTT assay; type: functional, cell-based; settings: A549, 48 h
U-87 MG [22] = assay: Induction of apoptosis in human U87 cells assessed as early apoptotic cells at 20 uM incubated for 48 hrs in presence of 4-(4-(3-(4-chloro-3-(trifluoromethyl)phenyl)ureido)phenoxy)-N-(prop-2-yn-1-yl)picolinamide by Annexin V-FLTC/PI staining based flow cytometry (reference value: 8.95 %); type: functional, U-87MG ATCC
U-87 MG [23] = assay: Induction of apoptosis in human U87 cells assessed as early apoptotic cells at 5 uM incubated for 48 hrs in presence of 4-(4-(3-(4-chloro-3-(trifluoromethyl)phenyl)ureido)phenoxy)-N-(prop-2-yn-1-yl)picolinamide by Annexin V-FLTC/PI staining based flow cytometry (reference value: 8.95 %); type: functional, U-87MG ATCC
HEK293 [24] = assay: Cytotoxicity against HEK293 cells at high concentration incubated for 48 hrs in presence of 4-(4-(3-(4-chloro-3-(trifluoromethyl)phenyl)ureido)phenoxy)-N-(prop-2-yn-1-yl)picolinamide by MTT assay; type: toxicity, cell-based; settings: human, hek293, 48 h
U-87 MG [25] = assay: Antiproliferative activity against human U87 cells incubated for 48 hrs in presence of 4-(4-(3-(4-chloro-3-(trifluoromethyl)phenyl)ureido)phenoxy)-N-(prop-2-yn-1-yl)picolinamide by MTT assay; type: functional, cell-based, U-87MG ATCC
[26] = target: Vascular endothelial growth factor receptor 2 (Homo sapiens) (UniProt P35968); assay: Induction of VEGFR2 degradation in human U87 cells at 10 uM incubated for 48 hrs by Western blot analysis; type: cell-based

Vascular endothelial growth factor receptor 2 (Homo sapiens), sequence (P35968 whole entry): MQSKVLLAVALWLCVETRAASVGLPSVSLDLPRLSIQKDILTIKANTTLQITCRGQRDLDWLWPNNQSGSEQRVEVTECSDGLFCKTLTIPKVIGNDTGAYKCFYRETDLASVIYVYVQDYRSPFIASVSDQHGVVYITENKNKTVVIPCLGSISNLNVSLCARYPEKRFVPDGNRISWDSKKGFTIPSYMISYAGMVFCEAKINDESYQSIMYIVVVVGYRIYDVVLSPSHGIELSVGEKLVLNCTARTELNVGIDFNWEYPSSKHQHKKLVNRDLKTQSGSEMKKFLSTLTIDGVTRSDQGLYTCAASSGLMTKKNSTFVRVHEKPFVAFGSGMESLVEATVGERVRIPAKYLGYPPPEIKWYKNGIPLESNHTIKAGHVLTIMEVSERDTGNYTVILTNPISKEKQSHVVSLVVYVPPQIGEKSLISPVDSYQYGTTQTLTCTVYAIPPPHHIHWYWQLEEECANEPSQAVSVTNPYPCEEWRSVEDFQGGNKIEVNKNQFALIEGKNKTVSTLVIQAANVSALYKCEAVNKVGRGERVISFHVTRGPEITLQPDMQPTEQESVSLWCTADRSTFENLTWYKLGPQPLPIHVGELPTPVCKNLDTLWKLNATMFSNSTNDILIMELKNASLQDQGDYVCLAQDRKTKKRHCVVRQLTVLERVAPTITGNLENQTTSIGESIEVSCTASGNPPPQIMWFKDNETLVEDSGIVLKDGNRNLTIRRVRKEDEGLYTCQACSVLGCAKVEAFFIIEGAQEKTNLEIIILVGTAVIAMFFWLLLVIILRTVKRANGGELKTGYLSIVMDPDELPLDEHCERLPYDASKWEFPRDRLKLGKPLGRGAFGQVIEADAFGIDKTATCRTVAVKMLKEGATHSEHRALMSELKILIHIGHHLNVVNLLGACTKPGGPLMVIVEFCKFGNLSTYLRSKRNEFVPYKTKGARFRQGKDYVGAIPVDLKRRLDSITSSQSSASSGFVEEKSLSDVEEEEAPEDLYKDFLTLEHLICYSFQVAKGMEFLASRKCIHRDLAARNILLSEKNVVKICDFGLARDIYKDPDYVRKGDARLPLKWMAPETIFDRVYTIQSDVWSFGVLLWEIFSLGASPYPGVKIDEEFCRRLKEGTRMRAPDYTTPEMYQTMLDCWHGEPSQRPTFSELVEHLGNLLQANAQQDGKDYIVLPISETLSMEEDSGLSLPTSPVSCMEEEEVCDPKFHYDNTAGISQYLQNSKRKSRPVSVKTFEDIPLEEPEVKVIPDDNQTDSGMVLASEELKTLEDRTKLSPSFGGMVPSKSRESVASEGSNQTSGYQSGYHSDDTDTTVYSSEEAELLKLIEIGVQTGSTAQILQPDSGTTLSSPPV
Serine/threonine-protein kinase B-raf (Homo sapiens), sequence (P15056 whole entry): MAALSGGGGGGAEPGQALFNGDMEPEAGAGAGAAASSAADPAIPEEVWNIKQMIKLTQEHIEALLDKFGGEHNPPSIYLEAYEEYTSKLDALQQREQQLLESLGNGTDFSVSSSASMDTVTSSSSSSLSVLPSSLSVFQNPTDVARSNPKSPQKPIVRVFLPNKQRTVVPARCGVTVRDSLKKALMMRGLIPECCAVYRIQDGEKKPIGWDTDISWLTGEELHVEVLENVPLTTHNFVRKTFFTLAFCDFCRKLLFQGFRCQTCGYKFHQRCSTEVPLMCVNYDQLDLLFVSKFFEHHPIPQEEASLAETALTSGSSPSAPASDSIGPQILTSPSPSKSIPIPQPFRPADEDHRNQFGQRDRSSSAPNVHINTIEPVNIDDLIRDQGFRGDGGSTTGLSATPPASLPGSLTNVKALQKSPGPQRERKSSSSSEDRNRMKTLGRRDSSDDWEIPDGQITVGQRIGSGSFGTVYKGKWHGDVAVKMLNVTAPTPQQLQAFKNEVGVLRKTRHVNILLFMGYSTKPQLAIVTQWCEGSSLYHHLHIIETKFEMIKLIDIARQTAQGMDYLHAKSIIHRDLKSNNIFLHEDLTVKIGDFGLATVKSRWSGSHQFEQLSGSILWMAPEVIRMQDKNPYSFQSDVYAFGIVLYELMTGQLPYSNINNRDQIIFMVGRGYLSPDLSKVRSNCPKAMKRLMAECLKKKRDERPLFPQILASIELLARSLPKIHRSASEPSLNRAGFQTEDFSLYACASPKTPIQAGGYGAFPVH
Platelet-derived growth factor receptor beta (Homo sapiens), sequence (P09619 whole entry): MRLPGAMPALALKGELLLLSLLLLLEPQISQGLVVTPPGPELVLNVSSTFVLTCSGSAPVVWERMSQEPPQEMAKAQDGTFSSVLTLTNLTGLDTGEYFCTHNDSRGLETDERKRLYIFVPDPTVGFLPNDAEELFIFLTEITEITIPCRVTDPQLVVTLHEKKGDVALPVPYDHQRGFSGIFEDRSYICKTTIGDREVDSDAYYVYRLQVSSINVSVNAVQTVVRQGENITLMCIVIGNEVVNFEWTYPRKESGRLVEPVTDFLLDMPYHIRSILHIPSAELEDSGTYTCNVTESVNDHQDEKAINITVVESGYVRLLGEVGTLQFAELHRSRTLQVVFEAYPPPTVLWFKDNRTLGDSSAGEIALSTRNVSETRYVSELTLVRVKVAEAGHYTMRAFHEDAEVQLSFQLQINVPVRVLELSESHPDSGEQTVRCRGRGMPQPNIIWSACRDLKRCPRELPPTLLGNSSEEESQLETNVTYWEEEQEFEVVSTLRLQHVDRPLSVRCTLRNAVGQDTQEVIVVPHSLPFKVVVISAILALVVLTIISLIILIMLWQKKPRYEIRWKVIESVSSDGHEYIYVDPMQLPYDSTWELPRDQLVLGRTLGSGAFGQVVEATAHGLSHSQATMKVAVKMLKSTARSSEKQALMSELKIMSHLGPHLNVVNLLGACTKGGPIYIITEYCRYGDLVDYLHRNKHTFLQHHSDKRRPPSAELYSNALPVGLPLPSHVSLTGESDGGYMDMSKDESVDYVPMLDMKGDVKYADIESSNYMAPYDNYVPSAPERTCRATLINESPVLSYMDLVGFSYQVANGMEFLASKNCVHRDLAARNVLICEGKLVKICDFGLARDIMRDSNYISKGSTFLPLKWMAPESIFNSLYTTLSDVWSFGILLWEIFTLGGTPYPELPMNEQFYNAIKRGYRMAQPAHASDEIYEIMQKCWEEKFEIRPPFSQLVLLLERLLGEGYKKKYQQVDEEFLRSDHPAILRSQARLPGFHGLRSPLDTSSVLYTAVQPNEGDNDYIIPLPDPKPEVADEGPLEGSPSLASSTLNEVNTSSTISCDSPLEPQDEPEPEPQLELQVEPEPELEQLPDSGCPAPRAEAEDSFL

pIC50 (A549 [1]): 5.55
Activity [3]: Active
Activity [4]: inactive
Activity [5]: inactive
pIC50 (U-87 MG [11]): 5.18
Activity [15]: Active
pIC50 (A549 [16]): 5.97
Compound: C#CCNC(=O)c1cc(Oc2ccc(NC(=O)Nc3ccc(Cl)c(C(F)(F)F)c3)cc2)ccn1
Activity (HEK293 [2]): Non-Toxic
Activity (HEK293 [6]): Toxic
Activity (U-87 MG [7]): 73.25%
Activity (U-87 MG [8]): 11.69%
Activity (U-87 MG [9]): 79.04%
Activity (U-87 MG [10]): 0.05%
viability at 0.1 µM (U-87 MG [12]): 85.3%
Activity (U-87 MG [13]): 25.6%
viability at 1 µM (U-87 MG [14]): 81.6%
viability at 20 µM (U-87 MG [17]): 9.88%

pIC50 (A549 [1]): < 4.30
Stability [18]: Stable
pIC50 (A549 [21]): 5.94
pIC50 (U-87 MG [11]): < 4.30
pIC50 (U-87 MG [25]): 5.25
Activity [26]: Active
Compound: [N-]=[N+]=NCCCC(=O)Nc1cccc2c1C(=O)N(C1CCC(=O)NC1=O)C2=O (centres undefined)
Activity (U-87 MG [19]): 25.22%
Activity (U-87 MG [20]): 6.36%
Activity (HEK293 [2]): Non-Toxic
Activity (U-87 MG [22]): 4.73%
Activity (U-87 MG [23]): 0.05%
Activity (HEK293 [24]): Toxic
